Experimental data as given in patent US7417156B2, “Orally active, antimalarial, anticancer, artemisinin-derived trioxane dimers” (Johns Hopkins University, priority 2002, dated 2008).

Experiments:
COLO 205 = test: NCI 60 cell line panel screen (SRB); type: cell-based, human
HCT-116 = test: NCI 60 cell line panel screen (SRB); type: cell-based, human
RPMI-8226 = test: NCI 60 cell line panel screen (SRB); type: cell-based, human
OVCAR-3 = test: NCI 60 cell line panel screen (SRB); type: cell-based, human
60 cell line panel = type: cell-based
NCI/ADR-RES = test: NCI 60 cell line panel screen (SRB); type: cell-based, human
HOP-92 = test: NCI 60 cell line panel screen (SRB); type: cell-based, human
CAKI-1 = test: NCI 60 cell line panel screen (SRB); type: cell-based, human
KM12 = test: NCI 60 cell line panel screen (SRB); type: cell-based, human
NCI-H23 = test: NCI 60 cell line panel screen (SRB); type: cell-based, human
M14 = test: NCI 60 cell line panel screen (SRB); type: cell-based, human
MALME-3M = test: NCI 60 cell line panel screen (SRB); type: cell-based, human
MCF7 = test: NCI 60 cell line panel screen (SRB); type: cell-based, human
SF-268 = test: NCI 60 cell line panel screen (SRB); type: cell-based, human
HCT-15 = test: NCI 60 cell line panel screen (SRB); type: cell-based, human
CCRF-CEM = test: NCI 60 cell line panel screen (SRB); type: cell-based, human
PC-3 = test: NCI 60 cell line panel screen (SRB); type: cell-based, human
[1] = tested on: chloroquine-sensitive P. falciparum (NF54); test: Antimalarial activity in vitro, [3H]hypoxanthine incorporation; type: cell-based; conditions: Table I; NF54 strain; read-out: IC50
SK-MEL-2 = test: NCI 60 cell line panel screen (SRB); type: cell-based, human
NCI-H460 = test: NCI 60 cell line panel screen (SRB); type: cell-based, human
SNB-75 = test: NCI 60 cell line panel screen (SRB); type: cell-based, human; conditions: SNB-75 (CNS Cancer)
RXF 393 = test: NCI 60 cell line panel screen (SRB); type: cell-based, human
SK-MEL-28 = test: NCI 60 cell line panel screen (SRB); type: cell-based, human
U251 = test: NCI 60 cell line panel screen (SRB); type: cell-based, human
K-562 = test: NCI 60 cell line panel screen (SRB); type: cell-based, human
OVCAR-8 = test: NCI 60 cell line panel screen (SRB); type: cell-based, human
HL-60(TB) = test: NCI 60 cell line panel screen (SRB); type: cell-based, human
[2] = mean value over the 60 cell line panel

Q: `CC1CCC2C(C)C(CC(O)(CC3OC4OC5(C)CCC6C(C)CCC(C3C)C46OO5)CS(=O)(=O)c3ccc(C(=O)O)cc3)OC3OC4(C)CCC1C32OO4` (stereo not drawn) [Compound 10c, bis-trioxane β-hydroxysulfone benzoic acid] was tested. Which Log10LC50 (COLO 205; COLO 205 (Colon Cancer), LC50: PG=−50) did it give?
A: −5.55 log10M

Q: And the Log10TGI50 (COLO 205; COLO 205 (Colon Cancer), TGI: PG=0)?
A: <−8.30 log10M

Q: What about the Log10GI50 (COLO 205; Colon Cancer, COLO 205) of the same compound?
A: <−8.30

Q: What about the Log10GI50 (HCT-116; Colon Cancer, HCT-116) of the same compound?
A: <−8.30

Q: What about the Log10LC50 (HCT-116; HCT-116 (Colon Cancer), LC50: PG=−50) of the same compound?
A: −4.72 log10M

Q: And the Log10TGI50 (HCT-116; HCT-116 (Colon Cancer), TGI: PG=0)?
A: −5.16 log10M

Q: What about the Log10GI50 (RPMI-8226; Leukemia, RPMI-8226) of the same compound?
A: <−8.30

Q: And the Log10LC50 (RPMI-8226; RPMI-8226 (Leukemia), LC50: PG=−50)?
A: >−4.30 log10M

Q: And the Log10TGI50 (RPMI-8226; RPMI-8226 (Leukemia), TGI: PG=0)?
A: −5.03 log10M

Q: What about the Log10LC50 (OVCAR-3; OVCAR-3 (Ovarian Cancer), LC50: PG=−50) of the same compound?
A: −5.01 log10M

Q: And the Log10TGI50 (OVCAR-3; OVCAR-3 (Ovarian Cancer), TGI: PG=0)?
A: <−8.30 log10M

Q: And the Log10GI50 (OVCAR-3; Ovarian Cancer, OVCAR-3)?
A: <−8.30

Q: And the “Log10GI50 Delta” value (60 cell line panel)?
A: −0.73

Q: What about the “Log10GI50 Range” value (60 cell line panel) of the same compound?
A: 3.48

Q: And the “Log10LC50 Delta” value (60 cell line panel; 60 cell line panel)?
A: 1.00

Q: What about the “Log10LC50 Range” value (60 cell line panel; 60 cell line panel) of the same compound?
A: 1.25

Q: What about the “Log10TGI50 Delta” value (60 cell line panel; 60 cell line panel) of the same compound?
A: 2.79

Q: And the “Log10TGI50 Range” value (60 cell line panel; 60 cell line panel)?
A: 4.00

Q: And the “growth inhibition in words” value (60 cell line panel; colon cancer KM12, ovarian cancer OVCAR 3, breast cancer MDA-MB-435)?
A: selectively and strong inhibitory

Q: And the “Log10GI50 MG MID” value (60 cell line panel; mean over panel)?
A: −7.57

Q: What about the “Log10LC50 MG MID” value (60 cell line panel; [2]) of the same compound?
A: −4.55 log10M

Q: And the “Log10TGI50 MG MID” value (60 cell line panel; [2])?
A: −5.51 log10M

Q: What about the Log10GI50 (NCI/ADR-RES; Breast Cancer, NCI/ADR-RES) of the same compound?
A: −5.73

Q: What about the Log10LC50 (NCI/ADR-RES; NCI/ADR-RES (Breast Cancer), LC50: PG=−50) of the same compound?
A: −4.63 log10M

Q: What about the Log10TGI50 (NCI/ADR-RES; NCI/ADR-RES (Breast Cancer), TGI: PG=0) of the same compound?
A: −5.09 log10M

Q: What about the Log10LC50 (HOP-92; HOP-92 (Non-Small Cell Lung Cancer), LC50: PG=−50) of the same compound?
A: −4.52 log10M

Q: And the Log10TGI50 (HOP-92; HOP-92 (Non-Small Cell Lung Cancer), TGI: PG=0)?
A: −5.05 log10M

Q: What about the Log10GI50 (HOP-92; Non-Small Cell Lung Cancer, HOP-92) of the same compound?
A: <−8.30

Q: And the Log10LC50 (CAKI-1; CAKI-1 (Renal Cancer), LC50: PG=−50)?
A: −4.93 log10M

Q: And the Log10TGI50 (CAKI-1; CAKI-1 (Renal Cancer), TGI: PG=0)?
A: −6.71 log10M

Q: What about the Log10GI50 (CAKI-1; Renal Cancer, CAKI-1) of the same compound?
A: <−8.30

Q: And the Log10GI50 (KM12; Colon Cancer, KM12)?
A: <−8.30

Q: What about the Log10LC50 (KM12; KM12 (Colon Cancer), LC50: PG=−50) of the same compound?
A: −5.23 log10M

Q: What about the Log10TGI50 (KM12; KM12 (Colon Cancer), TGI: PG=0) of the same compound?
A: <−8.30 log10M

Q: And the Log10LC50 (NCI-H23; NCI-H23 (Non-Small Cell Lung Cancer), LC50: PG=−50)?
A: −4.77 log10M

Q: And the Log10TGI50 (NCI-H23; NCI-H23 (Non-Small Cell Lung Cancer), TGI: PG=0)?
A: −5.25 log10M

Q: And the Log10GI50 (NCI-H23; Non-Small Cell Lung Cancer, NCI-H23)?
A: <−8.30

Q: What about the Log10LC50 (M14; M14 (Melanoma), LC50: PG=−50) of the same compound?
A: −4.42 log10M

Q: And the Log10TGI50 (M14; M-14 (Melanoma), TGI: PG=0)?
A: −4.91 log10M

Q: What about the Log10GI50 (M14; Melanoma, M14) of the same compound?
A: <−8.30

Q: And the Log10LC50 (MALME-3M; MALME-3M (Melanoma), LC50: PG=−50)?
A: −4.80 log10M

Q: And the Log10TGI50 (MALME-3M; MALME-3M (Melanoma), TGI: PG=0)?
A: <−8.30 log10M

Q: What about the Log10GI50 (MALME-3M; Melanoma, MALME-3M) of the same compound?
A: <−8.30

Q: And the Log10GI50 (MCF7; Breast Cancer, MCF7)?
A: <−8.30

Q: What about the Log10LC50 (MCF7; MCF7 (Breast Cancer), LC50: PG=−50) of the same compound?
A: >−4.30 log10M

Q: And the Log10TGI50 (MCF7; MCF7 (Breast Cancer), TGI: PG=0)?
A: −5.13 log10M

Q: What about the Log10GI50 (SF-268; CNS Cancer, SF-268) of the same compound?
A: <−8.30

Q: What about the Log10LC50 (SF-268; SF-268 (CNS Cancer), LC50: PG=−50) of the same compound?
A: −4.59 log10M

Q: And the Log10TGI50 (SF-268; SF-268 (CNS Cancer), TGI: PG=0)?
A: −5.14 log10M

Q: And the Log10GI50 (HCT-15; Colon Cancer, HCT-15)?
A: <−8.30

Q: What about the Log10LC50 (HCT-15; HCT-15 (Colon Cancer), LC50: PG=−50) of the same compound?
A: −4.70 log10M

Q: And the Log10TGI50 (HCT-15; HCT-15 (Colon Cancer), TGI: PG=0)?
A: −5.23 log10M

Q: And the Log10LC50 (CCRF-CEM; CCRF-CEM (Leukemia), LC50: PG=−50)?
A: >−4.30 log10M

Q: And the Log10TGI50 (CCRF-CEM; CCRF-CEM (Leukemia), TGI: PG=0)?
A: −4.84 log10M

Q: What about the Log10GI50 (CCRF-CEM; Leukemia, CCRF-CEM) of the same compound?
A: <−8.30

Q: What about the Log10LC50 (PC-3; PC-3 (Prostate Cancer), LC50: PG=−50) of the same compound?
A: −4.62 log10M

Q: And the Log10TGI50 (PC-3; PC-3 (Prostate Cancer), TGI: PG=0)?
A: −5.23 log10M

Q: And the Log10GI50 (PC-3; Prostate Cancer, PC-3)?
A: <−8.30

Q: What about the IC50 [1] of the same compound?
A: 2.4 nM

Q: And the Log10LC50 (SK-MEL-2; SK-MEL2 (Melanoma), LC50: PG=−50)?
A: >−4.30 log10M

Q: And the Log10TGI50 (SK-MEL-2; SK-MEL-2 (Melanoma), TGI: PG=0)?
A: >−4.30 log10M

Q: What about the Log10LC50 (NCI-H460; NCI-H460 (Non-Small Cell Lung Cancer), LC50: PG=−50) of the same compound?
A: −4.62 log10M

Q: And the Log10TGI50 (NCI-H460; NCI-H460 (Non-Small Cell Lung Cancer), TGI: PG=0)?
A: −5.11 log10M

Q: What about the Log10GI50 (NCI-H460; Non-Small Cell Lung Cancer, NCI-H460) of the same compound?
A: <−8.30

Q: What about the Log10LC50 (SNB-75; LC50: PG=−50) of the same compound?
A: −4.32 log10M

Q: What about the Log10TGI50 (SNB-75; TGI: PG=0) of the same compound?
A: −4.80 log10M

Q: And the Log10LC50 (RXF 393; RXF 393 (Renal Cancer), LC50: PG=−50)?
A: −4.73 log10M

Q: What about the Log10TGI50 (RXF 393; RXF 393 (Renal Cancer), TGI: PG=0) of the same compound?
A: −5.99 log10M

Q: And the Log10GI50 (RXF 393; Renal Cancer, RXF 393)?
A: <−8.30

Q: And the Log10GI50 (SK-MEL-28; Melanoma, SK-MEL-28)?
A: −5.45

Q: What about the Log10LC50 (SK-MEL-28; SK-MEL-28 (Melanoma), LC50: PG=−50) of the same compound?
A: >−4.30 log10M

Q: And the Log10TGI50 (SK-MEL-28; SK-MEL-28 (Melanoma), TGI: PG=0)?
A: −4.63 log10M

Q: What about the Log10GI50 (U251; CNS Cancer, U251) of the same compound?
A: <−8.30

Q: And the Log10LC50 (U251; U251 (CNS Cancer), LC50: PG=−50)?
A: −4.72 log10M

Q: What about the Log10TGI50 (U251; U251 (CNS Cancer), TGI: PG=0) of the same compound?
A: −5.22 log10M

Q: And the Log10LC50 (K-562; K-562 (Leukemia), LC50: PG=−50)?
A: >−4.30 log10M

Q: And the Log10TGI50 (K-562; K-562 (Leukemia), TGI: PG=0)?
A: −4.75 log10M

Q: What about the Log10GI50 (K-562; Leukemia, K-562) of the same compound?
A: <−8.30

Q: And the Log10LC50 (OVCAR-8; OVCAR-8 (Ovarian Cancer), LC50: PG=−50)?
A: >−4.30 log10M

Q: And the Log10TGI50 (OVCAR-8; OVCAR-8 (Ovarian Cancer), TGI: PG=0)?
A: −4.48 log10M

Q: What about the Log10GI50 (OVCAR-8; Ovarian Cancer, OVCAR-8) of the same compound?
A: −5.25

Q: And the Log10LC50 (HL-60(TB); HL-60(TB) (Leukemia), LC50: PG=−50)?
A: >−4.30 log10M

Q: What about the Log10TGI50 (HL-60(TB); HL-60(TB) (Leukemia), TGI: PG=0) of the same compound?
A: <−8.30 log10M

Q: And the Log10GI50 (HL-60(TB); Leukemia, HL-60(TB))?
A: <−8.30
